Test systems include A549 NSCLC; HOP-62 NSCLC; K-562 leukemia; LXFL 529 NSCLC; M19-MEL melanoma; OVCAR-4 ovarian; OVCAR-8 ovarian; SN12C renal; BT-549 breast; MDA-MB-231 breast.
Holding throughout (assay): growth of human tumour cells (NCI), 48 h

The structures appear in SMILES notation.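 Following 48 hours of exposure in 96-well plates, responses at five concentrations were used to interpolate endpoints linearly. At the GI50, growth is halved. TGI is the concentration that stops growth completely.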

As for `O=C1CCCC(=O)C1=C(O)CCCCCCCCCCc1ccccc1`, the TGI in the test with A549 NSCLC was greater than 100 µM; in the test with HOP-62 NSCLC it was greater than 100 µM; in the test with K-562 leukemia it was greater than 100 µM; with LXFL 529 NSCLC, greater than 100 µM; in the test on M19-MEL melanoma, 97.9 µM; with OVCAR-4 ovarian, greater than 100 µM. For the same molecule, the TGI with OVCAR-8 ovarian and with SN12C renal was greater than 100 µM throughout.

For the molecule `CCOP(=O)(OCC)/C(C#N)=C/c1ccc[nH]1`, the TGI with A549 NSCLC, in the test with HOP-62 NSCLC, with K-562 leukemia, with LXFL 529 NSCLC, with M19-MEL melanoma and with OVCAR-4 ovarian was greater than 100 µM each time. Moreover, the TGI with OVCAR-8 ovarian and in the test on SN12C renal was greater than 100 µM in each case.

Take `Cn1cnc([N+](=O)[O-])c1Sc1nc2cccnc2s1`: the TGI in the test on A549 NSCLC is greater than 100 µM; in the test with HOP-62 NSCLC it was greater than 100 µM; in the test with LXFL 529 NSCLC, 25 µM; in the test with M19-MEL melanoma it was 29.6 µM; with OVCAR-4 ovarian, 25.2 µM; in the test on OVCAR-8 ovarian, 90.1 µM. The TGI in the test on SN12C renal was determined as 33.5 µM.

On to `CCOC(=O)N[C@H]1CCc2cc(O)c(OC)c(OC)c2-c2ccc(SC)c(=O)cc21`, for which the TGI was greater than 100 µM in the test with A549 NSCLC; greater than 100 µM in the test on HOP-62 NSCLC; greater than 100 µM in the test with K-562 leukemia; greater than 92.3 µM with LXFL 529 NSCLC; greater than 100 µM in the test with M19-MEL melanoma; greater than 100 µM in the test with OVCAR-4 ovarian. In addition, the results for the TGI with OVCAR-8 ovarian and with SN12C renal were greater than 100 µM and greater than 58.9 µM, respectively.

Turning to `CC1CC(=O)C(CC(=O)O)C1C(C(=O)C(=O)Nc1c(C#N)cccc1[N+](=O)[O-])[N+](=O)[O-]` (stereo unspecified), the TGI in the test with A549 NSCLC, with HOP-62 NSCLC, in the test on K-562 leukemia, with LXFL 529 NSCLC, in the test on M19-MEL melanoma and in the test with OVCAR-4 ovarian was greater than 100 µM throughout. Further, the TGI with OVCAR-8 ovarian is greater than 100 µM.

In the case of `CCC[CH2][Sn]1([CH2]CCC)[O]C(=O)c2cccc(OC)c2[O]1`, the GI50 with A549 NSCLC was 1760 nM; with HOP-62 NSCLC, 2.27 µM; in the test on K-562 leukemia it was 0.0719 µM; in the test on LXFL 529 NSCLC, 42.7 nM; in the test with M19-MEL melanoma it was 222 nM; in the test with OVCAR-4 ovarian, 1.05 µM. The GI50 was 0.469 µM with OVCAR-8 ovarian and 0.47 µM with SN12C renal. The TGI was 3.37 µM with A549 NSCLC; 3.75 µM in the test with HOP-62 NSCLC; 1.16 µM in the test with K-562 leukemia; 0.212 µM in the test with LXFL 529 NSCLC; 1.23 µM in the test on M19-MEL melanoma; 2.25 µM in the test with OVCAR-4 ovarian. Besides, the TGI with OVCAR-8 ovarian and in the test on SN12C renal was 1.71 µM throughout.

Take `Cc1ccc(-c2nc3c(C(=O)NCCN(C)C)cccc3[nH]2)cc1`: the TGI with A549 NSCLC turned out to be 34.5 µM; with HOP-62 NSCLC it was 36.1 µM; in the test on K-562 leukemia it was 50.5 µM; in the test on M19-MEL melanoma, 29.7 µM; in the test with OVCAR-4 ovarian it was 85.3 µM; in the test with OVCAR-8 ovarian it was 78.3 µM. The same molecule showed a TGI in the test on SN12C renal of 63.5 µM.

As for `COc1ccc(CC2NCCc3cc(OC)c(OC)cc32)cc1` (stereo unspecified), the TGI in the test with A549 NSCLC, in the test with HOP-62 NSCLC, in the test on LXFL 529 NSCLC, in the test on M19-MEL melanoma, in the test on OVCAR-4 ovarian and with OVCAR-8 ovarian was greater than 100 µM in each case. In the test on SN12C renal, this molecule displayed a TGI greater than 100 µM.

On to `S=P1(c2ccccc2)Nc2ccc(Cl)cc2N1` (stereo unspecified), for which the TGI is greater than 100 µM with A549 NSCLC; greater than 100 µM with HOP-62 NSCLC; greater than 100 µM with K-562 leukemia; greater than 100 µM in the test on LXFL 529 NSCLC; 67.2 µM with M19-MEL melanoma; greater than 100 µM in the test on OVCAR-4 ovarian.

`CCCCCCCCCCCCCC(=O)OC(/C=C/C(C)C)C(O)C(O)C(OC)C(=O)NC1CCCCNC1=O` (stereo unspecified): the GI50 in the test with A549 NSCLC was 1120 nM; in the test with HOP-62 NSCLC it was 3.88 µM; in the test on K-562 leukemia it was 2.68 µM; with OVCAR-4 ovarian, 3.97 µM; with OVCAR-8 ovarian, 2.77 µM. The TGI turned out to be 4.28 µM in the test on A549 NSCLC; 6.8 µM in the test with HOP-62 NSCLC; 10.2 µM in the test on K-562 leukemia; 4.88 µM in the test with LXFL 529 NSCLC; 6.76 µM with OVCAR-4 ovarian; 5.08 µM in the test on OVCAR-8 ovarian. In the test on SN12C renal, the TGI was 4.39 µM.

In the case of `CC(C)(C)c1cn2cccc(C(=O)N3CCN(CC(=O)Nc4ccc(Cl)cc4C(=O)c4ccccc4Cl)CC3)c2n1`, the GI50 in the test with A549 NSCLC is 2640 nM; with BT-549 breast it was 3.8 µM; in the test on HOP-62 NSCLC, 15.4 µM; with K-562 leukemia it was greater than 100 µM; with MDA-MB-231 breast, 13.1 µM; in the test on OVCAR-4 ovarian it was 7.9 µM. Also, the GI50 with OVCAR-8 ovarian is 6.84 µM; in the test with SN12C renal, 10.6 µM. The TGI with A549 NSCLC was 23.3 µM; in the test with BT-549 breast, 19.7 µM; with HOP-62 NSCLC it was 32.3 µM; in the test with K-562 leukemia, greater than 100 µM; in the test on MDA-MB-231 breast, 34.5 µM; in the test on OVCAR-4 ovarian, greater than 100 µM. For the same molecule, the TGI worked out at 77.4 µM in the test on OVCAR-8 ovarian and 35.4 µM in the test with SN12C renal.

Take `COCOCc1cc(OCc2ccccc2)c(OC)cc1Br`: the TGI in the test on A549 NSCLC, in the test on HOP-62 NSCLC, in the test with K-562 leukemia, in the test with M19-MEL melanoma, in the test on OVCAR-4 ovarian and in the test with OVCAR-8 ovarian was greater than 100 µM each time. This molecule came in with a TGI in the test with SN12C renal greater than 100 µM.

For the molecule `Cc1cc(O)ccc1O`, the GI50 was greater than 100000 nM in the test with A549 NSCLC; 16.3 µM in the test on BT-549 breast; 34.8 µM in the test on HOP-62 NSCLC; 13.8 µM in the test on K-562 leukemia; 11.4 µM with MDA-MB-231 breast; 15.6 µM in the test on OVCAR-4 ovarian. The GI50 was 32.7 µM with OVCAR-8 ovarian and 14.4 µM in the test on SN12C renal. The TGI in the test with A549 NSCLC was greater than 100 µM; in the test with BT-549 breast, greater than 100 µM; in the test on HOP-62 NSCLC it was greater than 100 µM; in the test on K-562 leukemia, 48.1 µM; in the test with MDA-MB-231 breast, 23.6 µM; in the test on OVCAR-4 ovarian, 29 µM. In addition, the TGI in the test on OVCAR-8 ovarian was greater than 100 µM; in the test with SN12C renal, 27.8 µM.

Take `Oc1ccccc1Nc1nc2ccccc2c2occc12`: the GI50 in the test on A549 NSCLC was 14500 nM; with BT-549 breast, 7.59 µM; in the test on HOP-62 NSCLC, 7.69 µM; in the test with K-562 leukemia, greater than 100 µM; in the test with MDA-MB-231 breast it was 10.1 µM; in the test with OVCAR-4 ovarian it was 10.8 µM. Besides, the GI50 is 15.4 µM with OVCAR-8 ovarian and 11.1 µM with SN12C renal. In addition, the TGI in the test on A549 NSCLC was 27.5 µM; with BT-549 breast, 20.7 µM; in the test with HOP-62 NSCLC it was 21.7 µM; in the test on K-562 leukemia, greater than 100 µM; in the test with MDA-MB-231 breast, 22.3 µM; in the test with OVCAR-4 ovarian, 31.4 µM. In addition, the TGI amounted to 35.8 µM in the test on OVCAR-8 ovarian and 23.1 µM with SN12C renal.

Values taken from PubChem BioAssay (NCI).
